Earlier results on 5 compounds are cited in US20260034249A1, “COMPOSITIONS AND METHODS FOR MODIFYING FERTILITY” (The Broad Institute, Inc., priority 2023, published 2026).

For one data set, the target named is T1, MT2 over MT1 receptor (Homo sapiens, UniProt P49286).
T1 sequence (P49286 1-362): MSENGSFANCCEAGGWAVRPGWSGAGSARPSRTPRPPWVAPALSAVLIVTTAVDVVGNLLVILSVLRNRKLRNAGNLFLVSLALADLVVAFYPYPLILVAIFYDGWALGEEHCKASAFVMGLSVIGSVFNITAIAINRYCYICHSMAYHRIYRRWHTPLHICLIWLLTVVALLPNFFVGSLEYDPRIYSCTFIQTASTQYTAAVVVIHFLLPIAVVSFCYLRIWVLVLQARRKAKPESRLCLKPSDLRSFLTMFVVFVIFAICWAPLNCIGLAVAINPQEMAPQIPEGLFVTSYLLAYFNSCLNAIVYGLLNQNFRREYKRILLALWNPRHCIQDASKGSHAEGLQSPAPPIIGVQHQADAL
To be noted: selectivity MT2 vs MT1.

Regarding `C/C1=C/C(=O)O[C@@H]2C[C@@H](CC[C@H](C)/C=C\C=C\CC1)O[C@@](O)([C@@H]1CSC(=O)N1)C2` [Latrunculin A], the “binding of TMSB4X to actin” value in the data set with TMSB4X was “Sponge toxin that prevents”. Regarding `CC(=O)NCCc1c(Cc2ccccc2)[nH]c2ccccc12` [Luzindole], on MT2 over MT1 receptor, the “affinity for MT2 over MT1 receptor” value is 25-fold affinity for MT2 over.

In the case of `C[C@@H]1CC[C@@]2(OC1)O[C@H]1C[C@H]3[C@@H]4CC=C5C[C@@H](O[C@@H]6O[C@H](CO)[C@@H](O[C@@H]7O[C@@H](C)[C@H](O)[C@@H](O)[C@H]7O)[C@H](O)[C@H]6O[C@@H]6O[C@@H](C)[C@H](O)[C@@H](O)[C@H]6O)CC[C@]5(C)[C@H]4CC[C@]3(C)[C@H]1[C@@H]2C` [dioscin], the Vim expression entry with Vim is reported as “Decreases Vim expression”.

On to `COc1cc(C2Oc3cc([C@H]4Oc5cc(O)cc(O)c5C(=O)[C@@H]4O)ccc3OC2CO)ccc1O` (some centres unmarked) [Silibin], for which the Vim expression result in the data set with Vim is recorded as “Decreases Vim expression”. As for `Oc1ccc(C=Cc2cc(O)cc(O)c2)cc1` [resveratrol], the Vim expression result in the data set with Vim is given as “Decreases Vim expression”.
